Experimental data reported in PMC7918738, “Microtubule Destabilizing Sulfonamides as an Alternative to Taxane-Based Chemotherapy” (International Journal of Molecular Sciences, 2021).

Tests used:
[1] = test system: IGROV-1 ovarian carcinoma cells; experiment: Antiproliferative activity against IGROV-1 (MTT); type: cell-based; details: Homo sapiens, 72 h
Experimental: (§1) The in vitro antiproliferative activity of compounds 38, 42, and 45 against a panel of five human ovarian carcinoma cell lines (SKOV3, IGROV-1, A2780, OVCAR-8, and OVCAR-3) was evaluated by a colorimetric method (Table 3) and compared with paclitaxel. […] For SKOV3, the potency reduction observed for paclitaxel together with a sustained or improved (42 with a 7 nM IC50 value) potency for MDS results in a more favorable profile of the MDS compared to paclitaxel.
MCF7 (human breast carcinoma), SKOV-3 (human ovarian carcinoma), OVCAR-3 (human ovarian carcinoma), OVCAR-8 (human ovarian carcinoma), and HeLa (human cervical carcinoma) cell lines were cultured in Dulbecco’s Modified Eagle’s Medium (DMEM) (Gibco, Thermo Fischer Scientific) containing 10% (v/v) heat-inactivated fetal bovine serum (HIFBS) (Lonza-Cambrex, Karlskoga, Sweden), 2 mM L-glutamine (Lonza-Cambrex, Karlskoga, Sweden), 100 μg/mL streptomycin, and 100 IU/mL penicillin (Lonza-Cambrex) at 37 °C in humidified 95% air and 5% CO2. HT-29 (human colon carcinoma), IGROV-1 (human ovarian carcinoma), and A2780 (human ovarian carcinoma) cell lines were cultured in RPMI 1640 medium (Gibco, Thermo Fischer Scientific) supplemented with 10% HIFBS, 100 μg/mL streptomycin, and 100 IU/mL penicillin at 37 °C in humidified 95% air and 5% CO2 atmosphere. The presence of mycoplasma was routinely checked with MycoAlert kit (Lonza-Cambrex) and only mycoplasma-free cells were used in the experiments. Ovarian tumor cell lines were originally acquired from Dr Atanasio Pandiella from Centro de Investigación del Cáncer (CIC), Salamanca, Spain. HeLa, HT-29 and MCF7 tumor cell lines were provided by Dr Faustino Mollinedo from Centro de Investigaciones Biológicas Margarita Salas, Madrid, Spain.
(§2) MCF7, HeLa, and HT-29 cell proliferation, when treated with the corresponding compounds, were determined using the XTT (sodium 3’-[1(phenylaminocarbonyl)-3,4-tetrazolium]-bis(4-methoxy-6-nitro)-benzenesulfonic acid hydrate) cell proliferation kit (Roche Molecular Biochemicals, Mannheim, Germany). […] The absorbance of the formazan product generated was measured at 450 nm using a multi-well plate reader. SKOV-3, OVCAR-3, OVCAR-8, IGROV-1, A-2780 cell proliferation, when treated with the corresponding compound, were determined using MTT (3-(4,5-dimethylthiazol-2-yl)-2,5-diphenyl-2H-tetrazolium bromide) (Sigma-Aldrich, St. Louis, MO, USA). […] Absorbance was measured at 570 nm in a plate reader (Ultra Evolution, Tecan, Männedorf, Suiza). […] After 24 h incubation, to allow cells to attach to the plates, all compounds were added at 1 µM concentration and the effect on the proliferation was evaluated 72 h post-treatment. […]

[2] = test system: OVCAR-8 ovarian carcinoma cells; experiment: Antiproliferative activity against OVCAR-8 (MTT); type: cell-based; details: Homo sapiens, 72 h
Experimental: as §1
(§3) MCF7 (human breast carcinoma), SKOV-3 (human ovarian carcinoma), OVCAR-3 (human ovarian carcinoma), OVCAR-8 (human ovarian carcinoma), and HeLa (human cervical carcinoma) cell lines were cultured in Dulbecco’s Modified Eagle’s Medium (DMEM) (Gibco, Thermo Fischer Scientific) containing 10% (v/v) heat-inactivated fetal bovine serum (HIFBS) (Lonza-Cambrex, Karlskoga, Sweden), 2 mM L-glutamine (Lonza-Cambrex, Karlskoga, Sweden), 100 μg/mL streptomycin, and 100 IU/mL penicillin (Lonza-Cambrex) at 37 °C in humidified 95% air and 5% CO2. […]
as §2

[3] = test system: OVCAR-3 ovarian carcinoma cells; experiment: Antiproliferative activity against OVCAR-3 (MTT); type: cell-based; details: Homo sapiens, 72 h
Experimental: as §1, §3, §2

[4] = test system: HeLa cells; experiment: Cell cycle analysis in HeLa (PI staining, flow cytometry); type: cell-based, human; details: 24 h; 38 600 nM, 42 50 nM, 45 400 nM
Experimental: The effect of the lead MDS on the cell cycle of MCF7, SKOV3, and HeLa cells was analyzed in time-course experiments at 24, 48, and 72 h post-treatment by DNA staining and flow cytometry quantification. The working concentration for each compound (600 nM for 38, 50 nM for 42, and 400 nM for 45) was established at the complete inhibition of cell proliferation in view of individually assays run in parallel for each cell line.
Cell cycle analysis was performed in MCF7, SKOV-3, and HeLa cells by quantifying the DNA content by flow cytometry. Cells in the exponential growth phase at 2·10^4 cells/mL were seeded in 24-well plates (1 mL/well). After 24 h incubation, cells were treated with different concentrations of the selected compounds and the effect of treated and untreated cells was measured 24, 48, and 72 h post-treatment. Live and dead cells were collected and fixed in ice-cold ethanol/PBS (7:3) and stored at 4 °C for later use. Cells were rehydrated with PBS, treated with 100 µg/mL RNase A (Sigma-Aldrich Co., St. Louis, MO, USA) and stained overnight in darkness at room temperature with 50 µg/mL PI (Sigma-Aldrich Co.). Cell cycle profiles were then analyzed by flow cytometry using BD Accuri™ C6 Plus Flow Cytometer (BD Biosciences, San José, CA, USA). Data were analyzed with BD Accuri™ C6 Software (version 1.0.264.21, BD Biosciences, San José, CA, USA) and compared to control cells. Compounds were dissolved in DMSO and the final solvent concentration never exceeded 0.5% (v/v). Control wells included cells with 0.5% (v/v) DMSO.

SMILES	IC50 [1]	IC50 [2]	IC50 [3]	HeLa cells at G2/M phase [4]
CNc1ccc(S(=O)(=O)N(C)c2cc(OC)c(OC)c(OC)c2)cc1 [Compound 38]	248 nM	74 nM	31 nM	80%
COc1ccc(S(=O)(=O)N(C)c2cc(OC)c(OC)c(OC)c2)cc1N [Compound 42]	400 nM	37 nM	72 nM	44%
COc1ccc(S(=O)(=O)N(Cc2ccccc2)c2cc(OC)c(OC)c(OC)c2)cc1N [Compound 45]	492 nM	48 nM	58 nM	80%
